Assay results: patent US4996236A, “Therapeutic composition for hepatic encephalopathy” (Takeda Chemical Industries, Ltd., priority 1988, dated 1991)

Experiments:
[1] = Acute oral toxicity in rats; details: rat, in vivo, rats (Wistar)
[2] = Acute oral toxicity in mice; details: mouse, in vivo, mice (NRMI)
[3] = Blood ammonia level-lowering effect in rats on high-protein diet; type: in vivo, rat (male SD); details: for Blood ammonia level: 7 days, mean ± S.D., 5 animals
Procedure: The blood ammonia level-lowering effect of N-(1,3-dihydroxy-2-propyl)valiolamine in rats
Male SD rats aged […] were fed either on a regular diet or a high-protein powder diet containing 61% of casein for 7 days. N-(1,3-dihydroxy-2-propyl)valiolamine (hereinafter referred to shortly as AO-128) was added to the high-protein diet at final concentrations of 10 and 50 ppm. The animals had free access to the diets and the mean daily food intake was approximately 18 g/day. On the 7th day, laparotomy was performed under ether anesthesia and the blood was collected from the abdominal aorta. The blood ammonia level was estimated using an assay kit, a product of WAKO.

[4] = diabetics accompanied with hepatocirrhosis; cited from earlier work
α-glucosidase = details: cited from earlier work

| Structure (SMILES) | LD50 [1] [mg/kg] | LD50 [2] [mg/kg] | Blood ammonia level ([3]; 10 ppm AO-128 in high-protein diet (61% casein)) [µg/dL] | Blood ammonia level ([3]; 50 ppm AO-128 in high-protein diet (61% casein)) [µg/dL] | blood ammonia level versus high-protein diet control group ([3]; AO-128 treated high-protein diet group, 10 and 50 ppm) | effect on blood ammonia level [4] | α-glucosidase inhibitory activity (α-glucosidase) |
| --- | --- | --- | --- | --- | --- | --- | --- |
| OCC(CO)N[C@H]1C[C@](O)(CO)[C@@H](O)[C@H](O)[C@H]1O [AO-128, N-(1,3-dihydroxy-2-propyl)valiolamine] | ~20000 | 14700 to 21500 | 88 ± 7 | 90 ± 8 | overtly lower blood ammonia level than the high-protein diet control group | – | – |
| C[C@H]1O[C@H](O[C@H]2[C@H](O)[C@@H](O)[C@@H](O[C@H]3[C@H](O)[C@@H](O)C(O)O[C@@H]3CO)O[C@@H]2CO)[C@H](O)[C@@H](O)[C@@H]1N[C@H]1C=C(CO)[C@@H](O)[C@H](O)[C@H]1O (stereo partly shown) [acarbose] | – | – | – | – | – | lowers the blood ammonia level | α-glucosidase inhibitor |
